Several values for one entry are separate records, joined by “and”; a condition that tells them apart may be missing. Equal entries are not always repeated. Entries after “also recorded” stand apart in the source; their conditions may differ.
Assays:
[1] = tested on: shRNA PanK2 knockdown human neuroblastoma IMR32 cells; assay: Intracellular CoA levels in shRNA PanK2 knockdown human neuroblastoma cells; type: cell-based; conditions: for Area Ratio, biological replicates 1-3 / Area Ratio, Mean / CoASH Fold Increase, Mean: Figure 3 data; for Area Ratio, biological replicates 1-3: PANK2-/- cells; for CoASH Fold Increase, Mean: over vehicle (1.00); for CoASH Area ratio / Total CoA Area ratio: Figure 4 data, 1 µM fosmetpantotenate, each line a biological replicate (well), analyzed 3 times
Procedure: The in vitro model to evaluate the efficacy of fosmetpantotenate and analogs was developed using a human neuroblastoma IMR32 cell line (ATCC) with stable PanK2 knockdown through lentiviral-delivered shRNA [23]. […] Cells were cultured in minimal essential media (MEM; Invitrogen), supplemented with 10% fetal bovine serum, 2 mM glutamine, 1% penicillin-streptomycin, 1 mM sodium pyruvate, 1 mM non-essential amino acids, 1.5 g/L sodium bicarbonate, and 1 μg/mL puromycin. […] At the end of the time period, cells were harvested, counted, collected in a 15 mL falcon tube, and centrifuged at 200xg for 5 min at 4°C.
For all incubations, the supernatant was removed and the cell pellet was resuspended in 10 mL of ice-cold phosphate buffered saline. […] The supernatant (100 μL) was placed in a separate tube and dried under nitrogen at 20°C in the dark. Samples were reconstituted with ammonium acetate buffer (pH 5.1) containing dextrorphan (50 ng/mL) as the internal standard, stirred for 2 min, sonicated in an ultrasonic bath for 1 min, and stirred again for 1 min before liquid chromatography-tandem mass spectrometry (LC-MS/MS) analysis for determination of intracellular CoA levels. Intracellular CoA concentration was calculated considering an intracellular volume of 10^6 cells equal to 2 μL. The measurement of the intracellular volume of cultured cells was performed following the distribution of [^14C]urea and [^14C]mannitol with time.
Coenzyme A determinations: An Agilent 1100 high-performance liquid chromatography (HPLC) system with a CTC PAL autosampler was used. Samples were chromatographed on a Phenomenex Luna C18 column (50 x 2.0 mm; 5 μm), with a 0.2 mL/min flow rate and a […] injection volume in a 5 μL injection loop. The mobile phases were (A) 10 mM ammonium acetate in water and (B) acetonitrile:2-propanol (9:1; v:v). […] A Sciex API 4000 QTrap mass spectrometer, connected to the HPLC system in tandem, with an electrospray ionization source operating in the positive scanning mode, was used for multiple reaction monitoring (MRM). […] The statistical significance of the treatment was determined using a t-test.

[2] = Metabolic stability in rat whole blood; type: in vitro ADME; conditions: for Percentage Remaining: rat whole blood, replicates 1 and 2, listed as Fosmetpantotenate Total
Procedure: (§1) Metabolic stability in blood and liver microsomes: Fosmetpantotenate or its individual diastereomers (5 μM, n = 2, 37°C) were incubated in mouse, rat, cynomolgus monkey, and human whole blood. Samples (50 μL) were taken at 0, 5, 15, 30, and 60 min. Incubations of fosmetpantotenate or its individual diastereomers (1 μM, n = 2, 37°C) in pooled liver microsomes (0.25 mg protein/mL in 0.1 M phosphate buffer pH 7.4) were initiated with the addition of nicotinamide adenine dinucleotide phosphate (NADPH; 1 mM). Aliquots (100 μL) were obtained at 0, 5, 10, 20, and 40 min and added to 150 μL of 0.1% formic acid in acetonitrile-containing carbamazepine (0.5 μM) as an analytical internal standard, centrifuged, and the supernatants analyzed by LC-MS/MS.
(§2) Bioanalysis for determinations of analyte stability: Samples were analyzed using a benchtop tandem quadrupole detector (TQD) mass spectrometer (Waters Ltd, Centennial Park, Hertfordshire). […] Suitable retention and peak shape with separation of the 2 diastereomers were obtained. The chromatography column was a Phenomenex-Kinetex XB C18 (2.10 x 50 mm; 2.6 μm), with a 0.7 mL/min flow rate and a 2 μL injection volume. […] The gradient was initiated with 20% B and increased linearly, reaching 40% B at 0.6 min, followed by 50% B at 0.8 min and by 95% B at 0.9 min. Conditions were kept isocratic through 1.2 min, returned to starting conditions (20% B) at 1.25 min, and maintained at 20% B through 1.5 min before the next injection. Since fosmetpantotenate is a mixture of diastereomers which are resolved chromatographically, the fosmetpantotenate MRM area corresponds to the sum of the MRM areas of the individual diastereomers.
(§3) The percent of compound remaining was determined from the MRM area response in each sample relative to that in the T = 0 samples (normalized for internal standard). Natural log plots of the percent compound remaining over time were used to determine the t½ of compound disappearance using the relationship t½ = -0.693/λ, where λ is the slope of the natural logarithm of the percent compound remaining vs time curve.

[3] = Metabolic stability in human whole blood; type: in vitro ADME; conditions: for Percentage Remaining: human whole blood, replicates 1 and 2, listed as Fosmetpantotenate Total
Procedure: as §1, §2, §3

[4] = Metabolic stability in human liver microsomes; type: in vitro ADME; conditions: pooled liver microsomes
Procedure: as §1
Bioanalysis for determinations of analyte stability: Samples were analyzed using a benchtop tandem quadrupole detector (TQD) mass spectrometer (Waters Ltd, Centennial Park, Hertfordshire). […] Suitable retention and peak shape with separation of the 2 diastereomers were obtained. The chromatography column was a Phenomenex-Kinetex XB C18 (2.10 x 50 mm; 2.6 μm), with a 0.7 mL/min flow rate and a 2 μL injection volume. […]
The percent of compound remaining was determined from the MRM area response in each sample relative to that in the T = 0 samples (normalized for internal standard). […]

COC(=O)CCNC(=O)[C@H](O)C(C)(C)COP(=O)(N[C@@H](C)C(=O)OC)Oc1ccccc1 (mixture of isomers) [Fosmetpantotenate]
change in the level of free CoA ([1]; 1 μM TID for 5 days): little change; also recorded: little effect
Area Ratio, biological replicates 1-3 ([1]; compound conc 12.5 µM): 0.109 and 0.098 and 0.112
Area Ratio, biological replicates 1-3 ([1]; compound conc 25 µM): 0.141 and 0.129 and 0.135
Area Ratio, biological replicates 1-3 ([1]; compound conc 50 µM): 0.159 and 0.189 and 0.167
Area Ratio, biological replicates 1-3 ([1]; compound conc 100 µM): 0.157 and 0.186 and 0.139
Area Ratio, biological replicates 1-3 ([1]; compound conc 200 µM): 0.243 and 0.294 and 0.241
Area Ratio, Mean ([1]; concentration 12.5 µM): 0.081
Area Ratio, Mean ([1]; concentration 25 µM): 0.111
Area Ratio, Mean ([1]; concentration 50 µM): 0.141
Area Ratio, Mean ([1]; concentration 100 µM): 0.127
Area Ratio, Mean ([1]; concentration 200 µM): 0.216
CoASH Fold Increase, Mean ([1]; concentration 25 µM): 1.25
CoASH Fold Increase, Mean ([1]; concentration 50 µM): 2.00
CoASH Fold Increase, Mean ([1]; concentration 100 µM): 2.27
CoASH Fold Increase, Mean ([1]; concentration 200 µM): 2.41
CoASH Area ratio ([1]; Day 1): 0.0013 (2×) and 0.0014 and 0.0011 and 0.0012 (2×) and 0.0018 and 0.0019 (2×)
Total CoA Area ratio ([1]; Day 1): 0.0238 and 0.0248 and 0.0256 and 0.0250 and 0.0258 and 0.0229 and 0.0233 and 0.0235
CoASH Area ratio ([1]; Day 3): 0.0035 and 0.0037 (2×) and 0.0024 and 0.0025 and 0.0026 and 0.0022 and 0.0023 (2×)
Total CoA Area ratio ([1]; Day 3): 0.0360 and 0.0361 and 0.0365 and 0.0359 and 0.0368 and 0.0185 and 0.0353 and 0.0367
CoASH Area ratio ([1]; Day 5): 0.0029 and 0.0031 (2×) and 0.0024 (2×) and 0.0025 and 0.0019 and 0.0020 (2×)
Total CoA Area ratio ([1]; Day 5): 0.0314 and 0.0330 (2×) and 0.0343 and 0.0336 and 0.0342
half-life at 5 μM ([2]; rat blood, 5 μM, 37°C, 60 min): < 5 min
Percentage Remaining ([2]; 5 min): 6% and 1%
Percentage Remaining ([2]; 15 min): 0% and 8%
Percentage Remaining ([2]; 60 min): 0%
half-life at 5 μM ([3]; human blood, 5 μM, 37°C, 60 min): 67 min
Percentage Remaining ([3]; 5 min): 103% and 90%
Percentage Remaining ([3]; 15 min): 114% and 99%
Percentage Remaining ([3]; 30 min): 77% and 71%
Percentage Remaining ([3]; 60 min): 56% and 55%
half-life at 1 μM ([4]; pH 7.4, 1 μM, NADPH): 21 min
microsomal CLint at 1 μM ([4]; pH 7.4, read-out: intrinsic clearance): 134 µL/min/mg

From publication PMC5844530, “Fosmetpantotenate (RE-024), a phosphopantothenate replacement therapy for pantothenate kinase-associated neurodegeneration: Mechanism of action and efficacy in nonclinical models” (PLoS ONE, 2018)
